Laboratory results reported in patent US20220257639A1, “TREATMENT OF PATIENTS UNDER ANTIPLATELET MEDICATION EXPERIENCING ACUTE BLEEDING COMPLICATIONS DURING/AFTER SURGERY” (priority 2019, published 2022).

Legend:
[1] = tested on: human platelets in plasma; test: Platelet aggregation in platelet-rich plasma (light transmission aggregometry); format: cell-based; conditions: in the presence of both TPα and P2Y12 antagonists (dual inhibition; DAPT), FIG. 3
[2] = tested on: human platelets in plasma; test: as above; format: cell-based; conditions: 20 min, n=5, mean±S.E.M.
Method: With approval from the regional ethical board Örebro-Uppsala county (Dnr 2015/543) blood was obtained from healthy volunteers, who denied to have taken any medication two weeks prior to donation, by venipuncture and drawn into 10 ml syringes preloaded by the supplier with trisodium citrate solution (Sarstedt, Nümbrecht, Germany, Order number: 02.1067.001) The blood was and centrifuged at 220 g for 20 min. The PRP thus obtained was transferred into fresh 15 ml polypropylene tubes, and the remaining blood was centrifuged at 2200 g for 20 min to separate the PPP from remaining blood cells.
Measurements were performed at 37° C. using Chrono-Log lumi-aggregometer (Model 700, Chrono-log Corporation, Havertown, Pa., USA) with stirring at 900 rev./min using a final volume of 0.3 ml platelet suspension. Aggregation is expressed as percentage light transmission compared with PPP alone (=100%).
Platelets were preincubated with vehicle or AR-C66096 as indicated for 5 min followed by the stimulation with 1 μg/ml collagen, 10 μM SFLLRN, 30 μg/ml C34, 10 μg/ml fucoidan, or 30 μg/ml dextran sulfate (DxS) (FIG. 4A).
Platelets were preincubated with vehicle or ICI 192,506 as indicated for 5 min followed by the stimulation with 1 μg/ml collagen, 10 μM SFLLRN, 30 μg/ml C34, 10 μg/ml fucoidan, or 30 μg/ml dextran sulfate (DxS) (FIG. 4B).
Platelets were preincubated with vehicle or AR-C66096 and ICI 192,506 as indicated for 5 min followed by the stimulation with 1 μg/ml collagen, 10 μM SFLLRN, 30 μg/ml C34, 10 μg/ml fucoidan, or 30 μg/ml dextran sulfate (DxS) (FIG. 4C).

[3] = tested on: washed (isolated) human platelets; conditions: from Kauskot et al. [4]; cited from earlier work
[4] = FIG. 4A, in the presence of P2Y12 receptor antagonist AR-C66096 (5 min preincubation), same agonist concentrations
[5] = FIG. 4A, vehicle preincubation (no antagonist), 1 μg/ml collagen, 10 μM SFLLRN, 30 μg/ml C34, 10 μg/ml fucoidan, 30 μg/ml DxS
[6] = FIG. 4B, in the presence of TPα receptor antagonist ICI 192,605 (5 min preincubation), same agonist concentrations
[7] = FIG. 4B, vehicle preincubation (no antagonist), same agonist concentrations
[8] = FIG. 4C, dual inhibition with AR-C66096 and ICI 192,605 (5 min preincubation), same agonist concentrations
[9] = FIG. 4C, vehicle preincubation (no antagonist), same agonist concentrations

Row | Molecule | course of platelet aggregation under dual inhibition (reversibility of first phase) [1] | extent of platelet aggregation (percentage light transmission compared with PPP) [2, 4] | extent of platelet aggregation (percentage light transmission compared with PPP) [2, 5] | extent of platelet aggregation (percentage light transmission compared with PPP) [2, 6] | extent of platelet aggregation (percentage light transmission compared with PPP) [2, 7] | extent of platelet aggregation (percentage light transmission compared with PPP) [2, 8] | extent of platelet aggregation (percentage light transmission compared with PPP) [2, 9] | aggregation of washed human platelets [3]
1 | dextran sulfate [DxS] | irreversible and sustained | 23±6% | 84±5% | 39±7% | 88±6% | 37±6% | 88±6% | –
2 | SFLLRN | only the first but reversible phase | 5±1% | 91±3% | 15±6% | 91±3% | 3±1% | 93±2% | –
3 | Collagen | only the first but reversible phase | 23±4% | 85±2% | 21±4% | 90±3% | 11±2% | 86±2% | –
4 | PEAR1-EC: PEAR1 extracellular domain protein (Kauskot et al.) (protein, UniProt Q5VY43 21-755, looked up, extracellular domain) extracellular domain: LNPSDPNTCSFWESFTTTTKESHSRPFSLLPSEPCERPWEGPHTCPQPTVVYRTVYRQVVKTDHRQRLQCCHGFYESRGFCVPLCAQECVHGRCVAPNQCQCVPGWRGDDCSSECAPGMWGPQCDKPCSCGNNSSCDPKSGVCSCPSGLQPPNCLQPCTPGYYGPACQFRCQCHGAPCDPQTGACFCPAERTGPSCDVSCSQGTSGFFCPSTHSCQNGGVFQTPQGSCSCPPGWMGTICSLPCPEGFHGPNCSQECRCHNGGLCDRFTGQCRCAPGYTGDRCREECPVGRFGQDCAETCDCAPDARCFPANGACLCEHGFTGDRCTDRLCPDGFYGLSCQAPCTCDREHSLSCHPMNGECSCLPGWAGLHCNESCPQDTHGPGCQEHCLCLHGGVCQATSGLCQCAPGYTGPHCASLCPPDTYGVNCSARCSCENAIACSPIDGECVCKEGWQRGNCSVPCPPGTWGFSCNASCQCAHEAVCSPQTGACTCTPGWHGAHCQLPCPKGQFGEGCASRCDCDHSDGCDPVHGRCQCQAGWMGARCHLSCPEGLWGVNCSNTCTCKNGGTCLPENGNCVCAPGFRGPSCQRSCQPGRYGKRCVPCKCANHSFCHPSNGTCYCLAGWTGPDCSQPCPPGHWGENCAQTCQCHHGGTCHPQDGSCICPLGWTGHHCLEGCPLGTFGANCSQPCQCGPGEKCHPETGACVCPPGHSGAPCRIGIQEPFTVMPTTPVAYNSL | – | – | – | – | – | – | – | induce aggregation of washed (isolated) human platelets in a concentration-dependent fashion
